# From ChEMBL document CHEMBL2390918, “Cinnamides as selective small-molecule inhibitors of a cellular model of breast cancer stem cells” (Bioorg Med Chem Lett, 2013)
# What was measured:
# [1] = biological target: Adenosine receptor A3 (Homo sapiens) (UniProt P0DMS8); conditions: CHO-K1, 10 uM
# [2] = biological target: Platelet-activating factor receptor (Homo sapiens) (UniProt P25105); assay: Displacement of [3H]PAF from platelet activating factor receptor in human platelets at 10 uM after 3 hrs relative to control
# [3] = Displacement of [125I]omega-Conotoxin GVIA from N-type calcium channel in Wistar rat frontal brain after 30 mins
# [4] = species: Rattus norvegicus; assay: Displacement of [125I]omega-Conotoxin GVIA from N-type calcium channel in Wistar rat frontal brain at 10 uM after 30 mins relative to control
# [5] = biological target: Cysteinyl leukotriene receptor 1 (Homo sapiens) (UniProt Q9Y271); conditions: CHO-K1, 10 uM
# [6] = biological target: Mu-type opioid receptor (Homo sapiens) (UniProt P35372); conditions: CHO-K1, 10 uM
# [7] = biological target: T1, Glutamate NMDA receptor (Rattus norvegicus) (UniProt P35439+Q00959+Q00960+Q00961+Q62645+Q8VHN2+Q9R1M7); conditions: Wistar, Cerebral cortex, 10 uM
# [8] = Displacement of [3H]PDBu from phorbol ester receptor in ICR mouse brain after 60 mins
# [9] = species: Mus musculus; assay: Displacement of [3H]PDBu from phorbol ester receptor in ICR mouse brain at 10 uM after 60 mins relative to control
# [10] = biological target: Histamine H3 receptor (Homo sapiens) (UniProt Q9Y5N1); conditions: CHO-K1, 10 uM
# [11] = biological target: Glutamate NMDA receptor; assay: Displacement of [3H]MDL105519 from NMDA receptor glycine binding site in Wistar rat cerebral cortex after 30 mins; assay type: tissue-based
# [12] = biological target: T1, Glutamate NMDA receptor (Rattus norvegicus); assay: Displacement of [3H]MDL105519 from NMDA receptor glycine binding site in Wistar rat cerebral cortex at 10 uM after 30 mins relative to control; assay type: tissue-based
# [13] = biological target: B2 bradykinin receptor (Homo sapiens) (UniProt P30411); conditions: CHEM1, 10 uM
# [14] = system: IMR-32; assay: Displacement of [I125]Epibatidine from nAChR in human IMR32 cells at 10 uM after 60 mins relative to control; assay type: cell-based
# [15] = biological target: T1, Glutamate NMDA receptor (Rattus norvegicus); conditions: Wistar, Cerebral cortex, 10 uM; remark: listed apart in the source
# [16] = species: Rattus norvegicus; assay: Displacement of [3H]Kainic acid from kainate receptor in Wistar rat brain at 10 uM after 60 mins relative to control
# [17] = Selectivity ratio of EC50 for human HMLE cells expressing shRNA and GFP to EC50 for human CSC-like HMLE cells expressing shRNA and epithelial cadherin; assay type: ADME, cell-based; conditions: read-out: Ratio EC50
# [18] = Cytotoxicity against human CSC-like HMLE cells expressing shRNA and epithelial cadherin after 70 to 74 hrs by Cell Titer Glo assay; assay type: functional, cell-based
# [19] = Chemical stability of the compound in PBS after 48 hrs at pH 7.4 by UPLC/MS analysis; assay type: physicochemical; conditions: read-out: Stability
# [20] = Chemical stability of the compound after 48 hrs in presence of GSH; assay type: physicochemical; conditions: read-out: Stability
# [21] = Chemical stability in DMSO after 48 hrs; assay type: physicochemical; conditions: read-out: Stability
# [22] = Solubility in PBS at 100 uM after 24 hrs at pH 7.4 by UPLC-MS analysis; assay type: physicochemical
# [23] = Plasma protein binding in human; assay type: ADME, cell-free; conditions: read-out: PPB (converted)
# [24] = Metabolic stability in human plasma after 5 hrs; assay type: ADME, cell-free; conditions: read-out: Stability
# [25] = Cytotoxicity against human HMLE cells expressing shRNA and GFP after 70 to 74 hrs by Cell Titer Glo assay; assay type: cell-based
# [26] = biological target: Muscarinic acetylcholine receptor M3 (Homo sapiens) (UniProt P20309); conditions: CHO-K1, 10 uM
# [27] = biological target: Muscarinic acetylcholine receptor M1 (Homo sapiens, UniProt P11229); assay: Displacement of [3H]N-methylscopolamine from human recombinant muscarinic M1 receptor expressed in CHOK1 cells after 2 hrs; assay type: cell-based, CHO-K1
# [28] = biological target: Muscarinic acetylcholine receptor M2 (Homo sapiens) (UniProt P08172); conditions: CHO-K1, 10 uM
# [29] = biological target: Muscarinic acetylcholine receptor M1 (Homo sapiens) (UniProt P11229); assay: Displacement of [3H]N-methylscopolamine from human recombinant muscarinic M1 receptor expressed in CHOK1 cells at 10 uM after 2 hrs relative to control; assay type: cell-based; conditions: CHO-K1
# [30] = biological target: Adenosine receptor A1 (Homo sapiens) (UniProt P30542); conditions: CHO, 10 uM
# [31] = Displacement of [3H]alpha, beta-methylene-ATP from purinergic P2X receptor in New Zealand albino rabbit urinary bladder after 30 mins; set-up: species or system Oryctolagus cuniculus
# [32] = species: Oryctolagus cuniculus; assay: Displacement of [3H]alpha, beta-methylene-ATP from purinergic P2X receptor in New Zealand albino rabbit urinary bladder at 10 uM after 30 mins relative to control
# [33] = biological target: D(4) dopamine receptor (Homo sapiens) (UniProt P21917); conditions: CHO-K1, 10 uM
# [34] = biological target: D(2) dopamine receptor (Homo sapiens) (UniProt P14416); conditions: CHO, 10 uM
# [35] = Displacement of [3H]Idazoxan from central-type imidazole receptor 2 imidazoline binding site in Wistar rat cerebral cortex after 30 mins; assay type: tissue-based
# [36] = species: Rattus norvegicus; assay: Displacement of [3H]Idazoxan from central-type imidazole receptor 2 imidazoline binding site in Wistar rat cerebral cortex at 10 uM after 30 mins relative to control; assay type: tissue-based
# [37] = biological target: Gamma-aminobutyric acid type B receptor subunit 1 (Homo sapiens) (UniProt Q9UBS5); assay: Displacement of [3H]CGP54626 from human recombinant GABAB1A receptor expressed in CHO cells at 10 uM after 3 hrs relative to control; assay type: cell-based
# [38] = biological target: Histamine H2 receptor (Homo sapiens) (UniProt P25021); assay: Displacement of [125I]Aminopotentidine from human recombinant histamine H2 receptor expressed in CHOK1 cells at 10 uM after 2 hrs relative to control; assay type: cell-based; conditions: CHO-K1
# [39] = biological target: Prostaglandin E2 receptor EP4 subtype (Homo sapiens) (UniProt P35408); assay: Displacement of [3H]PGE2 from human recombinant prostanoid EP4 receptor in CHEM1 cells at 10 uM after 2 hrs relative to control; assay type: cell-based
# [40] = biological target: Delta-type opioid receptor (Homo sapiens) (UniProt P41143); conditions: HEK293, 10 uM
# [41] = biological target: Neuropeptide Y receptor type 2 (Homo sapiens, UniProt P49146); assay: Displacement of [125I]Peptide YY from neuropeptide Y receptor type 2 in human KAN-TS cells after 2 hrs; assay type: cell-based
# [42] = biological target: Neuropeptide Y receptor type 2 (Homo sapiens) (UniProt P49146); assay: Displacement of [125I]Peptide-YY from neuropeptide Y receptor type 2 in human KAN-TS cells at 10 uM after 2 hrs relative to control; assay type: cell-based
# [43] = biological target: B1 bradykinin receptor (Homo sapiens) (UniProt P46663); assay: Displacement of [3H](Des-Arg10)-Kallidin from bradykinin B1 receptor in human IMR90 cells at 10 uM after 60 mins relative to control; assay type: cell-based; conditions: IMR-90
# [44] = species: Rattus norvegicus; assay: Displacement of [3H]Nitrendipine from L-type calcium channel dihydropyridine binding site in Wistar rat cerebral cortex at 10 uM after 90 mins relative to control; assay type: tissue-based
# [45] = Displacement of [3H]Nitrendipine from L-type calcium channel dihydropyridine binding site in Wistar rat cerebral cortex after 90 mins; assay type: tissue-based
# [46] = system: CHO-K1; assay: Displacement of [125I]2-iodomelatonin from human recombinant melatonin receptor 1 expressed in CHOK1 cells at 10 uM after 3 hrs relative to control; assay type: cell-based
# [47] = system: HIT-T15; assay: Displacement of [3H]Glyburide from ATP-sensitive potassium channel in hamster pancreatic HIT-T15 cells at 10 uM after 2 hrs relative to control; assay type: cell-based; conditions: Mesocricetus auratus
# [48] = Displacement of [3H]Glyburide from ATP-sensitive potassium channel in hamster pancreatic HIT-T15 cells after 2 hrs; assay type: cell-based, Mesocricetus auratus
# Chain of Neuropeptide Y receptor type 2 (P49146 whole entry): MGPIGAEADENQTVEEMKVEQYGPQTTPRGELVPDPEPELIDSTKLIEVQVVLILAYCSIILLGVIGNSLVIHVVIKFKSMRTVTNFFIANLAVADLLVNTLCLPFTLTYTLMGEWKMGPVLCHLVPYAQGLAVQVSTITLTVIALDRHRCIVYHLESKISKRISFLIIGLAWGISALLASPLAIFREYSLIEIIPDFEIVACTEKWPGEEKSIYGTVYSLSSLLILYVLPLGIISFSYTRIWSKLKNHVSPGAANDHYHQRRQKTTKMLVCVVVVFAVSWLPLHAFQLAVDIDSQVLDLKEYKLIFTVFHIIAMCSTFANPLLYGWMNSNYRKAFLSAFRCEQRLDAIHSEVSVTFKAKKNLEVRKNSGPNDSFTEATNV
# Chain of B1 bradykinin receptor (Homo sapiens) (P46663 whole entry): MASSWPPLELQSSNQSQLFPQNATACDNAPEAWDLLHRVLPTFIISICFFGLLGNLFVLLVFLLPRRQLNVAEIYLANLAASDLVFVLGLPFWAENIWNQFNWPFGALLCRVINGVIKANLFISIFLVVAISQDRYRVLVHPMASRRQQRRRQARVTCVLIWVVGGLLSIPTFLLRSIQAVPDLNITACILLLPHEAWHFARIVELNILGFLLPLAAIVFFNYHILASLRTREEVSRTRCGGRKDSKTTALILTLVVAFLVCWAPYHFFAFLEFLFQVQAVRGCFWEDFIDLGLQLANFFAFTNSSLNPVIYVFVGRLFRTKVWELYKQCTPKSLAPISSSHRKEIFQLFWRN
# Chain of Adenosine receptor A3 (Homo sapiens) (P0DMS8 whole entry): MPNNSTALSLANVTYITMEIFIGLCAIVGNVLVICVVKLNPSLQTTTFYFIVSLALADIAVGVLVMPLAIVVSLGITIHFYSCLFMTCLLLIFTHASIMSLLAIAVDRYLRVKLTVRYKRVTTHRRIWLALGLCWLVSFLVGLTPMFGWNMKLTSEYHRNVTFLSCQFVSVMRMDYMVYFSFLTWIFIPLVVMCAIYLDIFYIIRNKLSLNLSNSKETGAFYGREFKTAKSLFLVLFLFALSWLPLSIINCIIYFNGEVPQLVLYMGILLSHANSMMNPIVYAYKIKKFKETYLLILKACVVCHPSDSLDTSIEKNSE
# Chain of Neuropeptide Y receptor type 2 (Homo sapiens) (P49146 whole entry): as the sequence (P49146 whole entry) above
# Chain of Gamma-aminobutyric acid type B receptor subunit 1 (Homo sapiens) (Q9UBS5 whole entry): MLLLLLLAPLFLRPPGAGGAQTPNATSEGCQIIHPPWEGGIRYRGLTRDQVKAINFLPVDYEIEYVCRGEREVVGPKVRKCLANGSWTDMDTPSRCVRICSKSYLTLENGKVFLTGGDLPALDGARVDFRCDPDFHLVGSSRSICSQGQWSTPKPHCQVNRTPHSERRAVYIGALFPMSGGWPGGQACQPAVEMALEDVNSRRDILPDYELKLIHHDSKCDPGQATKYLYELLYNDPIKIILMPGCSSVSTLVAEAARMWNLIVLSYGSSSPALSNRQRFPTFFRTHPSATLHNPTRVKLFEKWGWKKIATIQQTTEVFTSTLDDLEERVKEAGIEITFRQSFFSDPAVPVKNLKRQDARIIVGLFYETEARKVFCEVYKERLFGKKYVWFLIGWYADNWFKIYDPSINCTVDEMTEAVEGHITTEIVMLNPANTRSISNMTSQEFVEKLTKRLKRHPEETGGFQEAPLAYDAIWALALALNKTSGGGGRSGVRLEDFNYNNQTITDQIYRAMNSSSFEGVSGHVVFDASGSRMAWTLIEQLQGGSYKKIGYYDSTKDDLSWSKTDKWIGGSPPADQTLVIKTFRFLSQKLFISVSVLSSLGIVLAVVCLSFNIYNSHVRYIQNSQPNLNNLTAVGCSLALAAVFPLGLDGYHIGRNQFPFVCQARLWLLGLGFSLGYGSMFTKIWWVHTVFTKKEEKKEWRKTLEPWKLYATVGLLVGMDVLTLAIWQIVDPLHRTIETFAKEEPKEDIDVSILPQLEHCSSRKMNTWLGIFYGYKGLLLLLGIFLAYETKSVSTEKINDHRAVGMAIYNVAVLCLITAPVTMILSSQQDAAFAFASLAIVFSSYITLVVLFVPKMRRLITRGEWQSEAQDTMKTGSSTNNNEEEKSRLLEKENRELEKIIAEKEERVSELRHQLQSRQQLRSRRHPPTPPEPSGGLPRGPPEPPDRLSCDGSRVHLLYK
# Chain of Histamine H2 receptor (Homo sapiens) (P25021 whole entry): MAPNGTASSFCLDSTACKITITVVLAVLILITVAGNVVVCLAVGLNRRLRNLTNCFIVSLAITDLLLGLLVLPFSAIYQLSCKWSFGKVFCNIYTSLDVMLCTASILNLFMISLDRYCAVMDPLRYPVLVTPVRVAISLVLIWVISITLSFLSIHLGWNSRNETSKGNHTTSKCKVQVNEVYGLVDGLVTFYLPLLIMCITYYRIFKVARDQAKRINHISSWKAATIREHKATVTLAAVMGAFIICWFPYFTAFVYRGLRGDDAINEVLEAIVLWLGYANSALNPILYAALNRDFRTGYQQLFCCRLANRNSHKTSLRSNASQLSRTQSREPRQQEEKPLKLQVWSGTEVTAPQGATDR
# Chain of Prostaglandin E2 receptor EP4 subtype (Homo sapiens) (P35408 whole entry): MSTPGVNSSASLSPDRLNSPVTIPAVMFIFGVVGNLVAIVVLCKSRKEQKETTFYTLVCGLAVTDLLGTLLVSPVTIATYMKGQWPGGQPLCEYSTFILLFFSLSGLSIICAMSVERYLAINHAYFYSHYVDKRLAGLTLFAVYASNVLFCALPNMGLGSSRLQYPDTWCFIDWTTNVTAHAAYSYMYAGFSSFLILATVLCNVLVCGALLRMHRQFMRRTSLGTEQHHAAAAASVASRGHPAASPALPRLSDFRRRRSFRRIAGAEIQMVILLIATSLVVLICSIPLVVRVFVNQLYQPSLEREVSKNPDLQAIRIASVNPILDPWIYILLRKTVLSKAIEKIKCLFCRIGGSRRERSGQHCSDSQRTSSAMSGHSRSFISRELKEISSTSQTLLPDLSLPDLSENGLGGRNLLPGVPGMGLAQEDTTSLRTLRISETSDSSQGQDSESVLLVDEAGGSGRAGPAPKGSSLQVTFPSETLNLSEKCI
# Chain of Muscarinic acetylcholine receptor M2 (Homo sapiens) (P08172 whole entry): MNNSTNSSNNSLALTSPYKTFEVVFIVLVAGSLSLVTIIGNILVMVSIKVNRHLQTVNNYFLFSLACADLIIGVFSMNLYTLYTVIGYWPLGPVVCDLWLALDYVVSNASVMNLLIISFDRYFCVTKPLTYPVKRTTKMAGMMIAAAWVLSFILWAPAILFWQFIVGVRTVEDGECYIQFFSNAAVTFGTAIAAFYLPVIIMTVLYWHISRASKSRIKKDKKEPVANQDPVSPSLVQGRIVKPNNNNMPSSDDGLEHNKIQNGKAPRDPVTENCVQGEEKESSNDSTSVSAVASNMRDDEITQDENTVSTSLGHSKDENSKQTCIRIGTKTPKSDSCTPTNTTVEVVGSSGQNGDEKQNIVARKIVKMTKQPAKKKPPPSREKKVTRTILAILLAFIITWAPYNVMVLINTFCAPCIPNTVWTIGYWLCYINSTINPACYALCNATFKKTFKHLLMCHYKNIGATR
# Chain of D(4) dopamine receptor (Homo sapiens) (P21917 whole entry): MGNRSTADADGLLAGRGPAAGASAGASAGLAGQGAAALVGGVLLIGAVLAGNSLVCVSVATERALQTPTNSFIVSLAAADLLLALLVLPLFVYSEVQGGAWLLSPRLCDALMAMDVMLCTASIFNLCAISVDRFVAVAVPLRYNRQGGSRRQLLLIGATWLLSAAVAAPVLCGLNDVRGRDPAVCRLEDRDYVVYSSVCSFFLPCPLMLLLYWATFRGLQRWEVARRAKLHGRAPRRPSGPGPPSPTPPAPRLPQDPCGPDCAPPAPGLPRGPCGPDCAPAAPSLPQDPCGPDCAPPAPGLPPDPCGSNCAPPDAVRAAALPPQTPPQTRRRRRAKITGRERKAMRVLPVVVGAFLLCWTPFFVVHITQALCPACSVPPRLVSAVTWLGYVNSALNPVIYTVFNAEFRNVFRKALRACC
# Chain of Cysteinyl leukotriene receptor 1 (Homo sapiens) (Q9Y271 whole entry): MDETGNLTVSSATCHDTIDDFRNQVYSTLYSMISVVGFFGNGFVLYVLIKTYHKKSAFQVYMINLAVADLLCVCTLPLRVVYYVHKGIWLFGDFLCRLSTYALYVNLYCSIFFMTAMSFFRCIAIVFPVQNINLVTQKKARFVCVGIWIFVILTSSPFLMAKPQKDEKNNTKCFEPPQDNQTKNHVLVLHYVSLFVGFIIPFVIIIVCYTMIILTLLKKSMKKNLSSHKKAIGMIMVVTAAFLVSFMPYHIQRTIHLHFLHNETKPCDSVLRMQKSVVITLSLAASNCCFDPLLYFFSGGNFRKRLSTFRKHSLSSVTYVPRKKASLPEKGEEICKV
# Chain of Muscarinic acetylcholine receptor M3 (Homo sapiens) (P20309 whole entry, looked up): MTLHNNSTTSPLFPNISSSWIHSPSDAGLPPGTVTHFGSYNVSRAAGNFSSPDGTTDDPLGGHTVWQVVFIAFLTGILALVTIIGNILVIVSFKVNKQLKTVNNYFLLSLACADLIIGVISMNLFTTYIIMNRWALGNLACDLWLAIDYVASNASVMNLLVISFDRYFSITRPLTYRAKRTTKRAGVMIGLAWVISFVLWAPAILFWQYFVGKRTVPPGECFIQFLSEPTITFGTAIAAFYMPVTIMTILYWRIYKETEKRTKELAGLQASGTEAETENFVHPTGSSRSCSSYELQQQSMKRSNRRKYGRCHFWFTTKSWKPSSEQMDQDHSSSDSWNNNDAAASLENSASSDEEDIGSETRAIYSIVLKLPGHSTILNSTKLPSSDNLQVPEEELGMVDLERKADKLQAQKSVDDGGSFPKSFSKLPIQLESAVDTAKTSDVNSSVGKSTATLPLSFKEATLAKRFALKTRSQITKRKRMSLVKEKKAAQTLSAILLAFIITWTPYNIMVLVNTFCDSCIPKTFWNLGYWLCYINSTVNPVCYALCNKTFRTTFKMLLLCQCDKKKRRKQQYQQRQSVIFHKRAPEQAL
compound,measurement,setting,value
CNC(=O)[C@H]1O[C@@H](n2cnc3c(NCc4cccc(I)c4)ncnc32)[C@H](O)[C@@H]1O,inhibition,[1],22%
CCCCCCCCCCCCCCCCOC[C@H](COP(=O)([O-])OCC[N+](C)(C)C)OC(C)=O,inhibition,[2],6%
C[C@@H](O)[C@@H]1NC(=O)[C@H](Cc2ccc(O)cc2)NC(=O)[C@@H]2C[C@@H](O)CN2C(=O)[C@H](CC(N)=O)NC(=O)[C@@H]2CSSC[C@@H]3NC(=O)[C@H](CO)NC(=O)[C@H](CO)NC(=O)CNC(=O)[C@@H]4C[C@@H](O)CN4C(=O)[C@H](CO)NC(=O)[C@H](CCCCN)NC(=O)[C@@H](N)CSSC[C@H](NC(=O)[C@H](CSSC[C@@H](C(=O)N[C@@H](Cc4ccc(O)cc4)C(N)=O)NC(=O)[C@H](CCCNC(=N)N)NC(=O)[C@H](CCCCN)NC1=O)NC(=O)[C@H](CC(N)=O)NC(=O)[C@H](Cc1ccc(O)cc1)NC(=O)[C@H](CO)NC(=O)[C@H]([C@@H](C)O)NC(=O)[C@@H]1C[C@@H](O)CN1C(=O)[C@H](CO)NC3=O)C(=O)N[C@@H](CCCNC(=N)N)C(=O)N[C@@H](CO)C(=O)N2,IC50,[3],0.034 nM
same,Ki,[3],0.028 nM
same,inhibition,[4],14%
CCCCC/C=C\C\C=C/C=C/C=C/[C@@H](SC[C@H](N)C(=O)NCC(=O)O)[C@@H](O)CCCC(=O)O,inhibition,[5],-10%
C[C@@H](NC(=O)[C@@H](N)Cc1ccc(O)cc1)C(=O)NCC(=O)N(C)[C@@H](Cc1ccccc1)C(=O)NCCO,inhibition,[6],4%
C[C@@]12NC(Cc3ccccc31)c1ccccc12,inhibition,[7],1%
CCCCCCCCCCCCCC(=O)O[C@@H]1[C@@H](C)[C@@]2(O)[C@@H](C=C(CO)C[C@]3(O)C(=O)C(C)=C[C@@H]23)[C@@H]2C(C)(C)[C@]12OC(C)=O [PHORBOL MYRISTATE ACETATE],IC50,[8],0.79 nM
same,Ki,[8],0.59 nM
same,inhibition,[9],-1%
C[C@@H](N)Cc1c[nH]cn1,inhibition,[10],6%
O=C(O)/C(=C/c1c(C(=O)O)[nH]c2cc(Cl)cc(Cl)c12)c1ccccc1,IC50,[11],22 nM
same,Ki,[11],21 nM
same,inhibition,[12],-3%
H-RPPGFSPFR-OH,inhibition,[13],4%
Clc1ccc(C2CC3CCC2N3)cn1 (stereo unspecified),inhibition,[14],12%
N[C@@H](CCC(=O)O)C(=O)O,inhibition,[15],10%
same,inhibition,[16],0%
CCc1ccc(/C=C/C(=O)NC2=NCCS2)cc1,selectivity ratio,[17],32
same,EC50,[18],2000 nM
same,remaining at 48 h,[19],75%
same,remaining at 48 h,[20],82%
same,remaining at 48 h,[21],> 75%
same,"solubility at 24 h, 100 µM",[22],11.5 µM
same,fraction unbound,[23],0.034
same,remaining at 5 h,[24],97.1%
same,EC50,[25],64000 nM
C[N+]1(C)CCC(OC(=O)C(c2ccccc2)c2ccccc2)CC1 [4-DAMP],inhibition,[26],-4%
same,IC50,[27],4.5 nM
same,inhibition,[28],-2%
same,inhibition,[29],5%
C[C@H](Cc1ccccc1)Nc1ncnc2c1ncn2[C@@H]1O[C@H](CO)[C@@H](O)[C@H]1O,inhibition,[30],25%
Nc1ncnc2c1ncn2[C@@H]1O[C@H](COP(=O)(O)CP(=O)(O)OP(=O)(O)O)[C@@H](O)[C@H]1O [DIPHOSPHOMETHYLPHOSPHONIC ACID ADENOSYL ESTER],IC50,[31],82 nM
same,Ki,[31],18 nM
same,inhibition,[32],3%
O=C(CCCN1CCC2(CC1)C(=O)NCN2c1ccccc1)c1ccc(F)cc1,inhibition,[33],-3%
same,inhibition,[34],-3%
c1ccc2c(c1)OCC(C1=NCCN1)O2 (stereo unspecified) [IDAZOXAN],IC50,[35],12 nM
same,Ki,[35],8 nM
same,inhibition,[36],11%
C[C@H](NC[C@H](O)CP(=O)(O)CC1CCCCC1)c1ccc(Cl)c(Cl)c1,inhibition,[37],1%
C/N=C(/NC#N)NCCSCc1csc(NC(=N)N)n1,inhibition,[38],11%
CCCCC[C@H](O)/C=C/[C@H]1[C@H](O)CC(=O)[C@@H]1C/C=C\CCCC(=O)O,inhibition,[39],5%
Oc1ccc2c3c1O[C@H]1c4[nH]c5ccccc5c4C[C@@]4(O)[C@@H](C2)N(CC2CC2)CC[C@]314,inhibition,[40],18%
H-PAEDLARYYSALRHYITRRQRY-NH2,IC50,[41],0.21 nM
same,Ki,[41],0.12 nM
same,inhibition,[42],6%
NCCCC[C@H](N)C(=O)N[C@@H](CCCN=C(N)N)C(=O)N1CCC[C@H]1C(=O)N1CCC[C@H]1C(=O)NCC(=O)N[C@@H](Cc1ccccc1)C(=O)N[C@@H](CO)C(=O)N1CCC[C@H]1C(=O)N[C@@H](Cc1ccccc1)C(=O)O,inhibition,[43],8%
CCOC(=O)C1=C(C)NC(C)=C(C(=O)OC)C1c1cccc([N+](=O)[O-])c1 (stereo unspecified) [NITRENDIPINE],inhibition,[44],-6%
same,IC50,[45],0.72 nM
same,Ki,[45],0.46 nM
COc1ccc2[nH]cc(CCNC(C)=O)c2c1,inhibition,[46],11%
COc1ccc(Cl)cc1C(=O)NCCc1ccc(S(=O)(=O)NC(=O)NC2CCCCC2)cc1 [GLYBURIDE],inhibition,[47],10%
same,IC50,[48],5.7 nM
same,Ki,[48],0.65 nM
